From patent publication US20240199634A1, “CYCLIC COMPOUNDS AND METHODS OF USING SAME” (SCHRÖDINGER, INC., priority 2021, published 2024)

Target: T1, Full length human CDC7 protein co-expressed with DBF4 (Homo sapiens, UniProt O00311)
T1 construct: Full length human CDC7 protein co-expressed with DBF4; purchased SignalChem (China)
Test: CDC7 Kinase Biochemical Assay (ADP-Glo, PDKtide substrate)
Settings: 0.1 nM CDC7/DBF4, 1 μM ATP, 10 μM PDKtide, 4 h reaction
Description: CDC7 Kinase Biochemical Assay PROTOCOL:
Full length human CDC7 protein co-expressed with DBF4 was purchased from SignalChem (China). CDC7 kinase activity was determined with PDKtide (SignalChem) as a substrate and by measuring ADP production using the ADP-Glo™ Kinase Assay kit (Promega) following the manufacturer's instructions. The kinase reaction was performed using the following conditions: Buffer: 40 mM Tris pH 7.5, 20 mM MgCl2, 0.1 mg/mL BSA and 50 μM DTT. Final reaction mix contained 0.1 nM CDC7/DBF4, 1 μM ATP and 10 μM PDKtide. The kinase reaction time was 4 h. The ADP-Glo signal was measured using an EnVision plate reader (PerkinELmer).
Percent inhibition of CDC7 kinase activity was calculated based on the following formula:
[formula] • SSample: the signal of compounds • SHigh Ctrl: the signal of high control (DMSO) • SLow Ctrl: the signal of low control (positive control CDC7 inhibitor)

T1 sequence (O00311 whole entry): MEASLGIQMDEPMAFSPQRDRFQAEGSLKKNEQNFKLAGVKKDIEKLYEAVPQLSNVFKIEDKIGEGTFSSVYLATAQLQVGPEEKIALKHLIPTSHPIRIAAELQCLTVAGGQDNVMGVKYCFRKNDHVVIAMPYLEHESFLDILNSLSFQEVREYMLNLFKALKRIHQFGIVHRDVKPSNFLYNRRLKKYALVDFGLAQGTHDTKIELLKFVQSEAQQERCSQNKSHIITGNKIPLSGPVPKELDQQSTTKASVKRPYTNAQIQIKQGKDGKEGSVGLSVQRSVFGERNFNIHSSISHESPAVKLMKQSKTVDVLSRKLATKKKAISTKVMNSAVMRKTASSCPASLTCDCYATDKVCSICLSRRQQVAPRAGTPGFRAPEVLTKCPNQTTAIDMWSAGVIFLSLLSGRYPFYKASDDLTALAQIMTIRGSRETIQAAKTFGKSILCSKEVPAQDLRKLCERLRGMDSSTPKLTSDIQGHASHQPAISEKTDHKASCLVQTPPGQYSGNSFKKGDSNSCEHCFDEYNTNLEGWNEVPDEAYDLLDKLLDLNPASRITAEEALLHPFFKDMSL
T1 sequence (Q9UBU7 whole entry partner): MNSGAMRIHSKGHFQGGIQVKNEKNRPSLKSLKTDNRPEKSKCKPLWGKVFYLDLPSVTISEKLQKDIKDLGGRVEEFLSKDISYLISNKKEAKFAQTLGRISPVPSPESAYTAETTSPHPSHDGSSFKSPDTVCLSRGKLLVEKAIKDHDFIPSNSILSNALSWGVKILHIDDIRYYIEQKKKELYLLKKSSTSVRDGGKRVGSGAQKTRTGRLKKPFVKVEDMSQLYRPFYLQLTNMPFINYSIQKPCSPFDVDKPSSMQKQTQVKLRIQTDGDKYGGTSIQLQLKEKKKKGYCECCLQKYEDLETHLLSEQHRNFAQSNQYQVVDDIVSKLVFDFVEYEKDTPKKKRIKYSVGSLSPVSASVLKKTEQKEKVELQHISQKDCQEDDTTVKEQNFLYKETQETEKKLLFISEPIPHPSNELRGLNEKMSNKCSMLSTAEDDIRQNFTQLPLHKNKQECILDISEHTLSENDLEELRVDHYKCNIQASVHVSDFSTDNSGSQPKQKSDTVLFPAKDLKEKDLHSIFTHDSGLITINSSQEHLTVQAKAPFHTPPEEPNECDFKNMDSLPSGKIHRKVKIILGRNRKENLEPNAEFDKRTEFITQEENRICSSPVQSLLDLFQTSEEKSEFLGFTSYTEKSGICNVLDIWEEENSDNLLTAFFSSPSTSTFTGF

| SMILES | IC50 |
| --- | --- |
| COCC1(O)CC(F)(F)Cc2c1[nH]c(=O)c1sc(-c3cn[nH]c3)cc21 (single isomer, unassigned) [Compound 48] | > 10 nM |
| O=c1[nH]c2c(c3cc(-c4cn[nH]c4)sc13)CC(F)(F)C[C@@H]2N1CCC1 (single isomer, unassigned) [Compound 13] | ≤ 1 nM |
| CN(C)C1(C)COCc2c1[nH]c(=O)c1sc(-c3cn[nH]c3)cc21 (single isomer, unassigned) [Compound 82] | 1 to 10 nM |
| O=c1[nH]c2c(c3cc(-c4cn[nH]c4)sc13)CCCC2(O)C(F)F (single isomer, unassigned) [Compound 36] | > 10 nM |
| CCC1(O)COCc2c1[nH]c(=O)c1sc(-c3cn[nH]c3)cc21 (single isomer, unassigned) [Compound 19] | > 10 nM |
| CC(C)C1(O)COCc2c1[nH]c(=O)c1sc(-c3cn[nH]c3)cc21 (single isomer, unassigned) [Compound 17] | 1 to 10 nM |
| CC(C)(O)C1(C)OCCc2c1[nH]c(=O)c1sc(-c3cn[nH]c3)cc21 (single isomer, unassigned) [Compound 56] | > 10 nM |
| Cc1n[nH]cc1-c1cc2c3c([nH]c(=O)c2s1)C(O)(C(C)(C)C)COC3 (single isomer, unassigned) [Compound 92] | ≤ 1 nM |
| O=c1[nH]c2c(c3cc(-c4cn[nH]c4)sc13)COCC2(O)C(F)(F)F (single isomer, unassigned) [Compound 28] | ≤ 1 nM |
| CN(C)C1(C)COCc2c1[nH]c(=O)c1sc(-c3cn[nH]c3)cc21 (single isomer, unassigned) [Compound 83] | 1 to 10 nM |
| CC[C@H](C)[C@]1(O)COCc2c1[nH]c(=O)c1sc(-c3cn[nH]c3)cc21 (single isomer, unassigned) [Compound 77] | ≤ 1 nM |
| CC1(O)CC(F)(F)Cc2c1[nH]c(=O)c1sc(-c3cn[nH]c3)cc21 (single isomer, unassigned) [Compound 54] | ≤ 1 nM |
| O=c1[nH]c2c(c3cc(-c4cn[nH]c4)sc13)CCCC2 [Compound 1, 2-(1H-pyrazol-4-yl)-6,7,8,9-tetrahydrothieno[2,3-c]quinolin-4(5H)-one] | ≤ 1 nM |
| O=c1[nH]c2c(c3cc(-c4cn[nH]c4)sc13)CCC[C@@H]2O (single isomer, unassigned) [Compound 3] | 1 to 10 nM |
| CC#CC1(O)COCc2c1[nH]c(=O)c1sc(-c3cn[nH]c3)cc21 (single isomer, unassigned) [Compound 73] | > 10 nM |
| CC(C)(C)[C@]1(O)COCc2c1[nH]c(=O)c1sc(-c3cn[nH]c3)cc21 (single isomer, unassigned) [Compound 21] | 1 to 10 nM |
| CC(C)(C)C1(O)COCc2c1[nH]c(=O)c1sc(-c3ccncc3F)cc21 (single isomer, unassigned) [Compound 60] | 1 to 10 nM |
| Cc1cc(-c2cc3c4c([nH]c(=O)c3s2)C(O)(C(C)(C)C)COC4)ccn1 (single isomer, unassigned) [Compound 62] | > 10 nM |
| O=c1[nH]c2c(c3cc(-c4cn[nH]c4)sc13)COCC2(O)C1CCCC1 (single isomer, unassigned) [Compound 79] | 1 to 10 nM |
| CC(C)C1(O)COCc2c1[nH]c(=O)c1sc(-c3c[nH]nc3F)cc21 (single isomer, unassigned) [Compound 26] | 1 to 10 nM |
| CC(C)(C)C1(O)COCc2c1[nH]c(=O)c1sc(-c3ccnnc3)cc21 (single isomer, unassigned) [Compound 68] | > 10 nM |
| Cc1cc(-c2cc3c4c([nH]c(=O)c3s2)C(O)(C(C)(C)C)COC4)ccn1 (single isomer, unassigned) [Compound 61] | ≤ 1 nM |
| CC(C)C1(O)COCc2c1[nH]c(=O)c1sc(-c3ccncc3)cc21 (single isomer, unassigned) [Compound 45] | > 10 nM |
| CC(C)C1(O)CCCc2c1[nH]c(=O)c1sc(-c3cn[nH]c3)cc21 (single isomer, unassigned) [Compound 88] | 1 to 10 nM |
| CC#CC1(O)COCc2c1[nH]c(=O)c1sc(-c3cn[nH]c3)cc21 (single isomer, unassigned) [Compound 72] | 1 to 10 nM |
| Cc1n[nH]cc1-c1cc2c3c([nH]c(=O)c2s1)C(O)(C(C)C)COC3 (single isomer, unassigned) [Compound 25] | 1 to 10 nM |
| Cc1n[nH]cc1-c1cc2c3c([nH]c(=O)c2s1)C(O)(C(F)(F)F)COC3 (single isomer, unassigned) [Compound 33] | 1 to 10 nM |
| CC(=O)N1Cc2c([nH]c(=O)c3sc(-c4cn[nH]c4)cc23)C(O)(C(C)(C)C)C1 (stereo not shown) [Compound 94, 2-acetyl-4-tert-butyl-4-hydroxy-8-(1H-pyrazol-4-yl)-3,5-dihydro-1H-thieno[2,3-c][1,6]naphthyridin-6-one] | ≤ 1 nM |

| SMILES | IC50 |
| --- | --- |
| COC1(C)CCCc2[nH]c(=O)c3sc(-c4cn[nH]c4)cc3c21 (single isomer, unassigned) [Compound 38] | 1 to 10 nM |
| Cc1n[nH]cc1-c1cc2c3c([nH]c(=O)c2s1)C(O)(C(C)C)COC3 (single isomer, unassigned) [Compound 24] | ≤ 1 nM |
| O=c1[nH]c2c(c3cc(-c4cn[nH]c4)sc13)CC(F)(F)C[C@H]2N1CCC1 (single isomer, unassigned) [Compound 12] | 1 to 10 nM |
| CCC1(O)CC(F)(F)Cc2c1[nH]c(=O)c1sc(-c3cn[nH]c3)cc21 (single isomer, unassigned) [Compound 50] | 1 to 10 nM |
| O=c1[nH]c2c(c3cc(-c4cn[nH]c4)sc13)COCC2(O)C1CCCC1 (single isomer, unassigned) [Compound 78] | ≤ 1 nM |
| CC1(N2CCCC2)COCc2c1[nH]c(=O)c1sc(-c3cn[nH]c3)cc21 (stereo not shown) [Compound 71, 4-methyl-8-(1H-pyrazol-4-yl)-4-(pyrrolidin-1-yl)-1,3,4,5-tetrahydro-6H-pyrano[4,3-b]thieno[3,2-d]pyridin-6-one] | > 10 nM |
| CC(C)(C)C1(O)COCc2c1[nH]c(=O)c1sc(-c3ncncc3Cl)cc21 (single isomer, unassigned) [Compound 64] | 1 to 10 nM |
| C[C@@]1(CO)CC(F)(F)Cc2c1[nH]c(=O)c1sc(-c3cn[nH]c3)cc21 (single isomer, unassigned) [Compound 15] | ≤ 1 nM |
| CCC(C)(C)C1(O)COCc2c1[nH]c(=O)c1sc(-c3cn[nH]c3)cc21 (single isomer, unassigned) [Compound 81] | ≤ 1 nM |
| CC(C)(C)C1(O)COCc2c1[nH]c(=O)c1sc(-c3c[nH]nc3F)cc21 (single isomer, unassigned) [Compound 65] | > 10 nM |
| COCC1(O)CC(F)(F)Cc2c1[nH]c(=O)c1sc(-c3cn[nH]c3)cc21 (single isomer, unassigned) [Compound 49] | ≤ 1 nM |
| CC1(CO)OCCc2c1[nH]c(=O)c1sc(-c3cn[nH]c3)cc21 (single isomer, unassigned) [Compound 34] | > 10 nM |
| O=c1[nH]c2c(c3cc(-c4cn[nH]c4)sc13)CCC[C@@H]2N1CCC(F)(F)C1 (single isomer, unassigned) [Compound 6] | > 10 nM |
| O=c1[nH]c2c(c3c(F)c(-c4cn[nH]c4)sc13)CC(F)(F)CC2 [Compound 2, 1,8,8-trifluoro-2-(1H-pyrazol-4-yl)-5,6,7,9-tetrahydrothieno[2,3-c]quinolin-4-one] | ≤ 1 nM |
| CCC(C)C1(O)COCc2c1[nH]c(=O)c1sc(-c3cn[nH]c3)cc21 (single isomer, unassigned) [Compound 75] | > 10 nM |
| Cn1nccc1-c1cc2c3c([nH]c(=O)c2s1)C(O)(C(C)(C)C)COC3 (single isomer, unassigned) [Compound 90] | > 10 nM |
| CC[C@@H](C)[C@@]1(O)COCc2c1[nH]c(=O)c1sc(-c3cn[nH]c3)cc21 (single isomer, unassigned) [Compound 76] | ≤ 1 nM |
| Cn1nccc1-c1cc2c3c([nH]c(=O)c2s1)C(O)(C(F)(F)F)COC3 (single isomer, unassigned) [Compound 31] | 1 to 10 nM |
| Cc1cnccc1-c1cc2c3c([nH]c(=O)c2s1)C(O)(C(C)(C)C)COC3 (single isomer, unassigned) [Compound 70] | > 10 nM |
| O=c1[nH]c2c(c3cc(-c4cn[nH]c4)sc13)COCC2(O)C(F)(F)F (single isomer, unassigned) [Compound 29] | 1 to 10 nM |
| CC1(CO)OCCc2c1[nH]c(=O)c1sc(-c3cn[nH]c3)cc21 (single isomer, unassigned) [Compound 35] | ≤ 1 nM |
| CCC(C)C1(O)COCc2c1[nH]c(=O)c1sc(-c3cn[nH]c3)cc21 (single isomer, unassigned) [Compound 74] | > 10 nM |
| O=c1[nH]c2c(c3cc(-c4cn[nH]c4)sc13)COCC2(O)C(F)F (single isomer, unassigned) [Compound 43] | 1 to 10 nM |
| CO[C@@H]1COCc2c1[nH]c(=O)c1sc(-c3cn[nH]c3)cc21 (single isomer, unassigned) [Compound 11] | > 10 nM |
| CNC1(C)COCc2c1[nH]c(=O)c1sc(-c3cn[nH]c3)cc21 (stereo not shown) [Compound 84, 4-methyl-4-(methylamino)-8-(1H-pyrazol-4-yl)-1,3,4,5-tetrahydro-6H-pyrano[4,3-b]thieno[3,2-d]pyridin-6-one] | ≤ 1 nM |
| CC(C)(O)C1(C)OCCc2c1[nH]c(=O)c1sc(-c3cn[nH]c3)cc21 (single isomer, unassigned) [Compound 57] | 1 to 10 nM |
| CC(C)(C)[C@]1(O)COCc2c1[nH]c(=O)c1sc(-c3ccncc3)cc21 (single isomer, unassigned) [Compound 23] | > 10 nM |
